Measurements reported in patent US5480969A, “Antagonists of LHRH” (The Administrators of the Tulane Educational Fund, priority 1992, dated 1996).
Converted amounts (≈) assume the structure as drawn. “And” between values parts separate entries of the source, which are not always exact repeats. Identical values can stand only once. Like-named read-outs stand apart in the source and are kept apart here. One block for each compound: values may come before it. Starred links: 1 amine or outer side, 2 acyl side, 3 side chain; linkers in the order of their positions; H or OH if unused. Non-standard residues stand in square brackets, D forms with d. Residues, ends and D or L forms follow the SMILES beside them. *: point of attachment. dAla(cis-4-NHCOPyz-cHex) = N[C@H](C[C@H]1CC[C@@H](NC(=O)c2cnccn2)CC1)C(=O)O; X2 = O=C(N[C@H]1CC[C@@H](C[C@H](N[*:1])C(=O)[*:2])CC1)c1cnccn1; d(hArg(Et2)) = CCN=C(NCC)NCCCC[C@@H](N)C(=O)O; X1 = O=C([C@@H](Cc1cnc2ccccc2c1)N[*:1])[*:2]; Ala(2-pyrazinyl) = N[C@@H](Cc1cnccn1)C(=O)O; hArg(Et2) = CCN=C(NCC)NCCCC[C@H](N)C(=O)O; dPhe(4-Cl) = N[C@H](Cc1ccc(Cl)cc1)C(=O)O; X3 = O=C([C@@H](Cc1cnccn1)N[*:1])[*:2]; d2Nal = N[C@H](Cc1ccc2ccccc2c1)C(=O)O; Lys(iPr) = CC(C)NCCCC[C@H](N)C(=O)O; d3Pal = N[C@H](Cc1cccnc1)C(=O)O; Cit = NC(=O)NCCC[C@H](N)C(=O)O; Picolinoyl = O=C(c1ccccn1)*; Abu = CC[C@H](N)C(=O)O

What was measured:
[1] = tested on: rat mast cells; assay: In vitro histamine release in rat mast cells; type: cell-based
Procedure: (§1) AOA in rats was determined as reported [Humphries et al.]. The wheal area/10 μg of analog was calculated as described [Ljungqvist et al. 1987]. The histamine release was assayed in rat mast cells as reported [Hook et al., Karten et al. 1987]. […] The biological data are in Table III.
(§2) The AOA was determined in rats as reported [Humphries et al.]. […] The data from the determinations of AOA and ED50 are in Table IV.
(§3) The AOA was determined in rats, as reported (13).

[2] = Wheal area per 10 μg of analog; type: in vivo
Procedure: as §1

[3] = tested on: rat mast cells; conditions: cited from earlier work; for Histamine release ED50: Table V
[4] = tested on: rats; assay: Antiovulatory activity (AOA) in rats; type: in vivo, rat; conditions: Table IV / Example 2
Procedure: as §1, §2, §3
The very large number of bioassays which are required for a very large number of samples necessitate a minimal number of animals for the initial bioassays. In these initial bioassays, relatively small differences in potencies, expressed as percent AOA, may be "semi-quantitative," but even such small initial differences may reveal valid trends of potency for structural interpretation and new designs.
Bioassays are repeated as many times as required for quantitative data. […] The initial bioassay of Antide showing 63% at 0.125 μg and 89% at 0.25 μg was on the first sample of […]. The following three bioassays were on a resynthesized sample. However, both samples fulfilled all criteria for purity.

[5] = tested on: rats; conditions: cited from earlier work; for AOA %/μg 0.25: 0.25 μg; for dose giving AOA of 100% (AOA100): background, literature antagonists
[6] = tested on: gonadotropin secretion; conditions: overectomized monkeys; single or multiple doses; cited from earlier work
[7] = Table III parent analogs from literature; cited from earlier work
[8] = tested on: testosterone secretion; conditions: male monkeys; single dose; cited from earlier work

Compound: CC(=O)N[C@H](Cc1cnc2ccccc2c1)C(=O)N[C@H](Cc1ccc(Cl)cc1)C(=O)N[C@H](Cc1cccnc1)C(=O)N[C@@H](CO)C(=O)N[C@@H](CCCNC(N)=O)C(=O)N[C@H](CCCCNC(=O)c1ccccn1)C(=O)N[C@@H](CC(C)C)C(=O)N[C@@H](CCCNC(=N)N)C(=O)N1CCC[C@H]1C(=O)N[C@H](C)C(N)=O [Analog 6 (Table VI), [Cit^5]-Argtide] (Ac-[X1][dPhe(4-Cl)][d3Pal]S[Cit][dK](Picolinoyl)LRP[dA]-NH2)
ED50 histamine release [1]: 94 µg/mL (≈ 62.6 µM)

Compound: CC(=O)N[C@H](Cc1ccc2ccccc2c1)C(=O)N[C@H](Cc1ccc(Cl)cc1)C(=O)N[C@H](Cc1cccnc1)C(=O)N[C@@H](CO)C(=O)N[C@@H](CCCCNC(=O)c1ccccn1)C(=O)N[C@H](CCCCNC(=O)[C@H](N)CO)C(=O)N[C@@H](CC(C)C)C(=O)N[C@@H](CCCCNC(C)C)C(=O)N1CCC[C@H]1C(=O)N[C@H](C)C(N)=O [Analog 7 (Table III), [N-Ac-D-Nal^1,D-pClPhe^2,D-3-Pal^3,PicLys^5,D-(DSer)Lys.sup .6,ILys^8,D-Ala^10]-LHRH] (Ac-[d2Nal][dPhe(4-Cl)][d3Pal]SK(Picolinoyl)[dK](dS)L[Lys(iPr)]P[dA]-NH2)
Wheal area ([2]; Table III / Example 1, listed as 7): 103.9 ± 5.2 mm^2 /10 μg and 103.9 mm^2 /10 μg

Compound: CC(=O)N[C@H](Cc1cnc2ccccc2c1)C(=O)N[C@H](Cc1ccc(Cl)cc1)C(=O)N[C@H](Cc1cccnc1)C(=O)N[C@@H](CO)C(=O)N[C@@H](C[C@H]1CC[C@@H](NC(=O)c2cnccn2)CC1)C(=O)N[C@H](CCCCNC(=O)c1ccccn1)C(=O)N[C@@H](CC(C)C)C(=O)N[C@@H](CCCCNC(C)C)C(=O)N1CCC[C@H]1C(=O)N[C@H](C)C(N)=O [Analog 11 (Table III), [N-Ac-D-3-Qal^1, D-pClPhe^2, D-3-Pal^3, c-PzACAla^5, D-PicLys^6, ILys^8, D-Ala^10] LHRH] (Ac-[X1][dPhe(4-Cl)][d3Pal]S[X2][dK](Picolinoyl)L[Lys(iPr)]P[dA]-NH2)
ED50 for hist. release [1]: 171 ± 17 µg/mL

Compound: CCN=C(NCC)NCCCC[C@H](NC(=O)[C@H](CC(C)C)NC(=O)[C@@H](CCCCNC(=NCC)NCC)NC(=O)[C@H](Cc1ccc(O)cc1)NC(=O)[C@H](CO)NC(=O)[C@@H](Cc1cccnc1)NC(=O)[C@@H](Cc1ccc(Cl)cc1)NC(=O)[C@@H](Cc1ccc2ccccc2c1)NC(C)=O)C(=O)N1CCC[C@H]1C(=O)N[C@H](C)C(N)=O [RS-26306, [N-Ac-D-2-Nal^1, D-pClPhe^2, D-3-Pal^3, D-hArg(Et2)^6, hArg(Et)2^8, D-Ala^10] LHRH] (Ac-[d2Nal][dPhe(4-Cl)][d3Pal]SY[d(hArg(Et2))]L[hArg(Et2)]P[dA]-NH2)
Histamine release ED50 [3]: 13 µg/mL

Compound: [D-Phe^2, Pro^3, DTrp^6 ] LHRH
dose giving AOA of 100% (AOA100) [5]: 750 μg/rat

Compound: [N-Ac-D-2-Nal^1 ; D-pClPhe^2, D-Trp^3, D-Arg^6, D-Ala^10 ] LHRH
dose giving AOA of 100% (AOA100) [5]: ca. 0.5 μg/rat

Compound: [N-Ac-D-2-Nal^1, D-pClPhe^2, D-3-Pal^3, Arg^5, D-Glu(AA)^6, D-Ala^10 ] LHRH [Nal-Glu]
column 1.5 (AOA, head not given) ([5]; Table V, column 1.5): 100

Compound: [N-Ac-D-2-Nal^1, D-pClPhe^2, D-3-Pal^3, D-Arg^6, Trp^7, D-Ala^10 ] LHRH
dose giving AOA of 100% (AOA100) [5]: ca. 0.5 μg/rat

Compound: [N-Ac-D-2-Nal^1, D-pClPhe^2, D-3-Pal^3, NicLys^5, D-NicLys^6, Ilys^8, D-Ala^10 ] LHRH [Antide]
inhibition of gonadotropin secretion [6]: Prolonged duration of inhibition | ED50 for hist. release ([3]; Table III parent analogs from literature): 300 µg/mL | Histamine release ED50 [3]: > 300 µg/mL | ED50 for histamine release ([3]; background): 300 µg/mL | histamine release (in words) ([3]; background): negligible | Wheal area [7]: 132.7 mm^2 /10 μg | suppression of testosterone secretion [8]: long-term suppression | column 1.0 (AOA, head not given) ([5]; Table V, column 1.0): 100 | dose giving AOA of 100% (AOA100) [5]: 1 μg/rat | AOA %/μg 0.25 ([5]; rats, Table III parent analogs from literature): inactive | AOA %/μg 0.5 ([5]; rats, 0.5 μg, Table III parent analogs from literature): 36%

Compound: [N-Ac-D-2-Nal^1, DpClPhe^2, D-Trp^3, D-Cit^6, D-Ala^10 ] LHRH
dose giving AOA of 100% (AOA100) [5]: 3 μg/rat

The next lines start with results.

ED50 for hist. release [1]: 18 µg/mL
Compound: CC(=O)N[C@H](Cc1ccc2ccccc2c1)C(=O)N[C@H](Cc1ccc(Cl)cc1)C(=O)N[C@H](Cc1cccnc1)C(=O)N[C@@H](CO)C(=O)N[C@@H](CCCCNC(=O)c1ccccn1)C(=O)N[C@H](CCCCNC(=O)[C@H](N)CO)C(=O)N[C@@H](CC(C)C)C(=O)N[C@@H](CCCCNC(C)C)C(=O)N1CCC[C@H]1C(=O)N[C@H](C)C(N)=O (Ac-[d2Nal][dPhe(4-Cl)][d3Pal]SK(Picolinoyl)[dK](dS)L[Lys(iPr)]P[dA]-NH2)

ED50 for hist. release [1]: 88 ± 6.4 µg/mL
Compound: CC(=O)N[C@H](Cc1ccc2ccccc2c1)C(=O)N[C@H](Cc1ccc(Cl)cc1)C(=O)N[C@H](Cc1cccnc1)C(=O)N[C@@H](CO)C(=O)N[C@@H](C[C@H]1CC[C@@H](NC(=O)c2cnccn2)CC1)C(=O)N[C@H](Cc1cnccn1)C(=O)N[C@@H](CC(C)C)C(=O)N[C@@H](CCCCNC(C)C)C(=O)N1CCC[C@H]1C(=O)N[C@H](C)C(N)=O (Ac-[d2Nal][dPhe(4-Cl)][d3Pal]S[X2][X3]L[Lys(iPr)]P[dA]-NH2)

Wheal area ([2]; Table III / Example 1): 101.6 ± 2.2 mm^2 /10 μg | ED50 for hist. release ([1]; concentration releasing 50% of total releasable histamine, Table III / Example 1): 28 ± 4.7 µg/mL
Compound: CC(=O)N[C@H](Cc1ccc2ccccc2c1)C(=O)N[C@H](Cc1ccc(Cl)cc1)C(=O)N[C@H](Cc1cccnc1)C(=O)N[C@@H](CO)C(=O)N[C@@H](Cc1cnccn1)C(=O)N[C@H](C[C@H]1CC[C@@H](NC(=O)c2cnccn2)CC1)C(=O)N[C@@H](CC(C)C)C(=O)N[C@@H](CCCCNC(C)C)C(=O)N1CCC[C@H]1C(=O)N[C@H](C)C(N)=O [compound 18] (Ac-[d2Nal][dPhe(4-Cl)][d3Pal]S[Ala(2-pyrazinyl)][dAla(cis-4-NHCOPyz-cHex)]L[Lys(iPr)]P[dA]-NH2)

Wheal area ([2]; Table III / Example 1): 103.9 ± 3.7 mm^2 /10 μg
Compound: CC[C@H](NC(=O)[C@@H](CCCCNC(=O)c1ccccn1)NC(=O)[C@H](CCCCNC(=O)c1ccccn1)NC(=O)[C@H](CO)NC(=O)[C@@H](Cc1cccnc1)NC(=O)[C@@H](Cc1ccc(Cl)cc1)NC(=O)[C@@H](Cc1cnc2ccccc2c1)NC(C)=O)C(=O)N[C@@H](CCCCNC(C)C)C(=O)N1CCC[C@H]1C(=O)N[C@H](C)C(N)=O [compound 20] (Ac-[X1][dPhe(4-Cl)][d3Pal]SK(Picolinoyl)[dK](Picolinoyl)[Abu][Lys(iPr)]P[dA]-NH2)

Wheal area ([2]; Table III / Example 1): 99.5 ± 4.5 mm^2 /10 μg
Compound: CC(=O)N[C@H](Cc1ccc2ccccc2c1)C(=O)N[C@H](Cc1ccc(Cl)cc1)C(=O)N[C@H](Cc1cccnc1)C(=O)N[C@@H](CO)C(=O)N[C@@H](CCCCNC(=O)c1ccccn1)C(=O)NC1CCN(C(CC(C)C)C(=O)N[C@@H](CCCCNC(C)C)C(=O)N2CCC[C@H]2C(=O)N[C@H](C)C(N)=O)C1=O (stereo partly shown) [compound 21]

Wheal area ([2]; Table III / Example 1): 89.5 ± 5.5 mm^2 /10 μg
Compound: CC(=O)N[C@H](Cc1cnc2ccccc2c1)C(=O)N[C@H](Cc1ccc(Cl)cc1)C(=O)N[C@H](Cc1cccnc1)C(=O)N[C@@H](CO)C(=O)N[C@@H](CCCCNC(=O)c1ccccn1)C(=O)NC1CCN(C(CC(C)C)C(=O)N[C@@H](CCCCNC(C)C)C(=O)N2CCC[C@H]2C(=O)N[C@H](C)C(N)=O)C1=O (stereo partly shown) [compound 22]

ED50 histamine release [1]: 30.8 ± 0.59 µg/mL
Compound: N-Ac-D-3-Qal, D-pClPhe, D-3-Pal, Ser, c-PzACAla, D-PicLys, Leu, Arg, Pro, D-AlaNH2 [Argtide]
Histamine release ED50 [3]: 31 µg/mL | ED50 histamine release ([3]; Table VI / Example 3 text, from Janecka et al.): 31 µg/mL | % AOA/μg dosage 0.125 ([4]; 0.125 μg): 63% | % AOA/μg dosage 0.25 ([4]; 0.25 μg): 89% | column 0.125 (AOA, head not given) ([5]; Table V comparison of leading antagonists, column 0.125): 63 | AOA %/μg 0.25 ([5]; rats, Table VI / Example 3 text, from Janecka et al.): 88%
